Results taken from ChEMBL document CHEMBL3351541, “Synthesis and analysis of potential α1,3-fucosyltransferase inhibitors” (Bioorg Med Chem, 2014).
Calls of active or inactive are those of the source. No cut-off for these calls is given here.

Tests used:
[1] = molecular target: T1, 4-galactosyl-N-acetylglucosaminide 3-alpha-L-fucosyltransferase 9 (Homo sapiens) (UniProt Q9Y231); experiment: (§1) Inhibition of human recombinant alpha1,3-fucosyltransferase 9 using GDP-[14C]-fucose preincubated for 30 mins by liquid scintillation counting; parameters: concentration or dose not given beside the values
T1 sequence (whole entry): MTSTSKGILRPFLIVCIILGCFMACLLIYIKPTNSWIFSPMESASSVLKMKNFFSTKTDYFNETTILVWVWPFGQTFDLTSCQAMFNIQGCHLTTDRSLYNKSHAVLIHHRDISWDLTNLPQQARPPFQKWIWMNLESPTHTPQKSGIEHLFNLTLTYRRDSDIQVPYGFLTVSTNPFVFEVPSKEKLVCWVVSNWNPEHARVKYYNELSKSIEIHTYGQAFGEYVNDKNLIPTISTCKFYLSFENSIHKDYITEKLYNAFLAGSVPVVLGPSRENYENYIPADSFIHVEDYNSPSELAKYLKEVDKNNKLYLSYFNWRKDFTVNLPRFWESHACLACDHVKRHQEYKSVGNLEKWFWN

Helicobacter pylori [2] = experiment: Inhibition of Helicobacter pylori recombinant alpha1,3-fucosyltransferase using GDP-[14C]-fucose preincubated for 30 mins by liquid scintillation counting
[3] = molecular target: T2, 4-galactosyl-N-acetylglucosaminide 3-alpha-L-fucosyltransferase 9 (Homo sapiens, UniProt Q9Y231); experiment: as §1
T2 sequence (Q9Y231 whole entry): T1 sequence (whole entry)

Helicobacter pylori [4] = experiment: Inhibition of Helicobacter pylori recombinant alpha1,3-fucosyltransferase using GDP-[14C]-fucose assessed as remaining activity preincubated for 30 mins by liquid scintillation counting

SMILES	inhibition [1]	inhibition (Helicobacter pylori [2])	IC50 [3]	Ki [3]	Activity (Helicobacter pylori [4])
C[C@@H](O)[C@H](O)[C@H](O)[C@@H](O)C=O	inactive	Active			
O=c1[nH]cnc2c1ncn2[C@@H]1O[C@H](COP(=O)(O)OP(=O)(O)O)[C@@H](O)[C@H]1O	30%	65%			
Nc1nc2c(ncn2[C@@H]2O[C@H](COP(=O)(O)OP(=O)(O)OCc3cn([C@@H]4O[C@H](CO)[C@H](O)[C@H](O)[C@H]4O)nn3)[C@@H](O)[C@H]2O)c(=O)[nH]1			247 µM	186 µM	
Nc1nc2c(ncn2[C@H]2C[C@H](O)[C@@H](CO[P@](=O)(O)OP(=O)(O)O)O2)c(=O)[nH]1	< 80%		49 µM	50.3 µM	60%
Nc1nc2c(ncn2[C@@H]2O[C@H](COP(=O)(O)OP(=O)(O)O)[C@@H](O)[C@H]2O)c(=O)[nH]1		< 75%	59 µM	77.9 µM	
Nc1ncnc2c1ncn2[C@@H]1O[C@H](COP(=O)(O)OP(=O)(O)O)[C@@H](O)[C@H]1O	inactive	Active			
NC[C@@H]1O[C@H](OP(=O)(O)OP(=O)(O)OC[C@H]2O[C@@H](n3cnc4c(=O)[nH]c(N)nc43)[C@H](O)[C@@H]2O)[C@@H](O)[C@H](O)[C@@H]1O	78%		104 µM	102 µM	
C[C@@H]1O[C@H](n2cc(COP(=O)(O)OP(=O)(O)OC[C@H]3O[C@@H](n4cnc5c(=O)[nH]c(N)nc54)[C@H](O)[C@@H]3O)nn2)[C@@H](O)[C@H](O)[C@@H]1O			139 µM	137 µM	
Nc1nc2c(ncn2[C@@H]2O[C@H](COP(=O)(O)OP(=O)(O)OCc3cn([C@@H]4O[C@H](CO)[C@@H](O[C@@H]5O[C@H](CO)[C@H](O)[C@H](O)[C@H]5O)[C@H](O)[C@H]4O)nn3)[C@@H](O)[C@H]2O)c(=O)[nH]1	45%				
Nc1nc2c(ncn2[C@@H]2O[C@H](COP(=O)(O)OP(=O)(O)OP(=O)(O)O)[C@@H](O)[C@H]2O)c(=O)[nH]1 [GUANOSINE TRIPHOSPHATE]	< 75%	< 75%	94 µM	80.7 µM	
Nc1nc2c(ncn2[C@@H]2O[C@H](COP(=O)(O)O)[C@@H](O)[C@H]2O)c(=O)[nH]1	inactive	Active			
CC(=O)Nc1nc2c(ncn2[C@@H]2O[C@H](COP(=O)(O)OP(=O)(O)OCc3cn([C@@H]4O[C@H](COC(C)=O)[C@H](OC(C)=O)[C@H](OC(C)=O)[C@H]4OC(C)=O)nn3)[C@@H](OC(C)=O)[C@H]2OC(C)=O)c(=O)[nH]1	inactive	45%			
C[C@H]1O[C@@H](n2cc(COP(=O)(O)OP(=O)(O)OC[C@H]3O[C@@H](n4cnc5c(=O)[nH]c(N)nc54)[C@H](O)[C@@H]3O)nn2)[C@H](O)[C@@H](O)[C@H]1O			134 µM	190 µM	
